Assay results from patent US20260325485A1, “COMPOSITIONS AND METHODS FOR TREATING PANCREATITIS” (The United States Government as represented by the …, priority 2022, published 2026).

How the values were obtained:
[1] = tested on: cerulein pancreatitis (CER-AP); assay: Drug treatment of cerulein pancreatitis (CER-AP) in WT mice; format: in vivo, mouse; settings: WT mice treated with simvastatin or BemA
Procedure: FIGS. 10A-10N show deranged cholesterol metabolism causes acinar cell damage, while its normalization ameliorates experimental pancreatitis. (A-D) Cholesterol content and trypsin activity were measured (per mg protein) in WT mouse acinar cells incubated for 1 hour without and with methyl-β-cyclodextrin (MCD; 10 mM) or cholesterol-loaded MCD (MCD-Chol; 200 μg/mL), in the presence or absence of 100 nM CCK. Values are expressed relative to those in cells without MCD/MCD-Chol. (E-J) WT mice received daily i.p. injections of the LXR agonist T0901317 (T09), simvastatin (Sim; 20 mg/kg each), or vehicle. On day 4, mice were subjected to CER-AP and pancreata collected for analyses (see also FIG. 20). Cholesterol content (E), trypsin activity (F), and pancreas histopathology (H&E staining; G) were measured. (H, I, L, and N) IB analysis of markers/mediators of autophagy (LC3, p62), ER stress (CHOP, GRP-78), and mitophagy (Parkin). Ub, ubiquitylated proteins. (J) Mitochondrial fragmentation was assessed by immunostaining for Tom20, as detailed in FIG. 7G. (K and L) Mouse acinar cells were treated for 16 hours with LDL (30 μg/mL) or the combination of LDL and 10 μM U18666A. (M and N) Mice received injections of U18666A as detailed in FIG. 9B. Pancreas histopathology (H&E staining; M) and levels of autophagy markers/mediators (N) were measured. Each symbol in A-F and I represents an individual mouse or cell preparation. Values are mean±SEM from 3 to 7 mice or cell preparations per condition. ^§ P<0.05, ^§§ P<0.01 vs. control cells (without MCD/MCD-Chol). ***P<0.001 vs. saline-treated mice. ^#P<0.05, ^##P<0.01, ^###P<0.001 vs. CER-AP alone (no inhibitors). Significance was determined by 2-tailed Student's t test (A-D) or 1-way ANOVA followed by Tukey's multiple comparison test (E, F, and I). Scale bars: 10 μm.
FIGS. 20A-20C show simvastatin improves cerulein pancreatitis. Mice received daily i.p. injections of simvastatin (Sim; 20 mg/kg) or vehicle (see FIG. 10), and on day 4 were subjected to cerulein pancreatitis (CER-AP). (A) Pancreas histopathology (H&E staining; scale: 10 μm). (B) IB analysis of markers/mediators of autophagy (LC3, p62), ER stress (CHOP), and the MLN64/STARD3 protein mediating cholesterol transfer from LE/Ly to mitochondria. Each IB lane represents an individual mouse; ERK1/2 is the loading control. […] Ub, ubiquitylated proteins. (C) Pancreatitis responses. Values are mean±SEM from 7-13 mice for each condition. ***p<0.001 vs saline control. ^###p<0.001 vs CER-AP alone (no simvastatin). Significance was determined by 1-way ANOVA followed by Tukey's multiple comparisons test.
(§1) FIGS. 25A-25C show reducing cholesterol overload greatly ameliorates experimental pancreatitis. CER-AP responses were measured in (A) AclyAac or (C) WT mice treated with simvastatin or bempedoic acid (BemA). (B) Acinar cells were transfected with ACLA (or mock) siRNA and subjected to ex-vivo CCK-AP. Each symbol represents an individual mouse or cell preparation. Values are mean±SE. **p<0.01, ***p<0.001 vs saline treated control mice (or mock transfection); #p<0.05, ##p<0.01, ###p<0.001 vs CER/CCK-AP in control mice (i.e. without inhibitors) or cells.
Cerulein-induced (CER-AP) and L-arginine induced (Arg-AP) acute pancreatitis models were performed in 12-week-old C57BL/6 mice that received 7 hourly i.p. injections of 50 μg/kg cerulein or 3 hourly i.p. injections of 3.3 g/kg Arg; controls received physiologic saline injections. Mice were euthanized for analyses 7 hours after the first cerulein or 24 hours after the first Arg injection. Choline deficient, ethionine-supplemented (CDE) pancreatitis was induced in young (~5-weeks old) female mice fed either CDE or control diet. Mice were euthanized 72 hours after the diet initiation. These models have been described in detail (1-7).
12-week-old WT mice were subjected for 4 consecutive days to daily i.p. injections of 20 mg/kg simvastatin (8,9) or 20 mg/kg T0901317 (10); or 10 mg/kg U18666A for 15 days (11). […]

muscles = settings: prodrug activated in the liver; cited from earlier work
CER/CCK-AP = assay: Effect of simvastatin and BemA in CER/CCK-AP (mouse and ex-vivo model)
Procedure: as §1
FIGS. 26A-26D preventing cholesterol overload ameliorates ex-vivo pancreatitis. Mouse pancreatic acinar cells were incubated (A, B) with simvastatin (4 μM, 3 h) or (C, D) cholesterol chelator, methyl-β-cyclodextrin (MCD; 10 mM, 1 h) and then subjected to CCK-AP for 1 (D) or 3 h (A, B). Cholesterol content (A, C) necrosis (B), and trypsin activity (D) were measured. Each symbol represents an individual cell preparation. Values are mean±SEM*p<0/05, **p<0.01 vs control; #p<0.05 ##p<0.01; vs CCK, no inhibitor.
Cholesterol metabolism is disrupted in pancreatitis as a result of lysosomal/autophagy dysfunction. Preventing acinar cell cholesterol overload with simvastatin alleviates AP in one experimental model (CER-AP). As discussed above, lysosomal/autophagy dysfunction is associated with both experimental and human pancreatitis.^6, 7, 9, 13, 17 However, until a recent publication^13 there was very little known on cholesterol metabolism in healthy pancreas, its changes in experimental and human pancreatitis, and role in disease severity. Further, effects of statins and other cholesterol-lowering drugs in pancreas, and the underlying mechanisms, have not been explored. […] This, in turn, stimulates a compensatory increase in cholesterol synthesis, further exacerbating cholesterol overload. It was further shown^13 that inhibition of cholesterol synthesis with simvastatin reduced acinar cell cholesterol overload and the severity of pancreatitis induced with supramaximal cerulein (CER), an ortholog of the hormone cholecystokinin-8 (CCK). The findings^13 reveal a previously unrecognized pathogenic role of cholesterol dysregulation in pancreatitis and indicate normalizing cholesterol metabolism as a novel therapeutic approach for disease treatment.
In summary, the published^13 and current data (FIGS. 23-26) reveal that disruption of acinar cell cholesterol metabolism is a common feature in models of experimental pancreatitis and also prominent in human disease. The key manifestation of cholesterol dyshomeostasis in pancreatitis is acinar cell cholesterol overload. […]

SMILES: CC(C)(CCCCCC(O)CCCCCC(C)(C)C(=O)O)C(=O)O [BemA, Bempedoic acid]
- cholesterol overload in CER-AP (FIG. 25C) [1]: decreased
- inflammation in CER-AP (FIG. 25C) [1]: ameliorated
- necrosis in CER-AP (FIG. 25C) [1]: ameliorated
- trypsin activity in CER-AP (FIG. 25C) [1]: ameliorated
- myotoxicity (muscles): minimal
- cholesterol overload, CER/CCK-AP (CER/CCK-AP): prevented
- disease severity, CER/CCK-AP (CER/CCK-AP): reduced
